The text below walks through data of US8969363B2, “Heterocyclic compounds and uses thereof” (Infinity Pharmaceuticals, Inc., priority 2011, dated 2015).

Like-named read-outs stand apart in the source and are kept apart here.

By IC50 is commonly meant the concentration needed to halve the response being measured. Broadly, the EC50 is the concentration at which the effect is half-maximal. Read a low EC50 as a more potent agent.

The target of one series is T1, PI3Kα (Homo sapiens, UniProt P42336).
T1 construct: purchased Millipore Corporation 14-602-K
In words: PI3 Kinase HTRF assay, PI3Kα. Format: biochemical. The settings on record: 10 μM PIP2, 10 μM ATP; 'Greater than 10 μM' and 'Greater than 1 μM to 10 μM'; read-out: PI3K α IC50. In short, it runs like this: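 Recombinant PI3K converts 10 μM PIP2 with 10 μM ATP, 1 h at room temperature after 15 min compound preincubation, 2% DMSO. PIP3 detected by competitive HTRF with GRP1 PH domain; IC50 by nonlinear regression over 12 points, 20 μM to 0.1 nM.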
(In general: TR-FRET usually uses a lanthanide donor and a delayed reading to cut background.)

In another series the target is PI3Kβ. In words: PI3 Kinase HTRF assay, PI3Kβ. Format: biochemical, human. As to conditions: 10 μM PIP2, 10 μM ATP; 'Greater than 10 μM' and 'Greater than 1 μM to 10 μM'; read-out: PI3K β IC50. The procedure, abridged: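 Recombinant PI3Kβ converting PIP2 (10 μM) to PIP3 with 10 μM ATP; PIP3 detected by competitive HTRF displacement of biotin-PIP3/GST-GRP1 PH domain complex. Emission ratios converted to % inhibition; IC50 by nonlinear regression.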

The next series concerns Balb/c splenic B cells. Put plainly: B cell activation and proliferation assay (Alamar Blue). It is filed as cell-based. The settings on record: Mus musculus. In short, it runs like this: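 Proliferation was read as Alamar Blue reduction (5 h, fluorescence 560/590 nm) after 72 h of stimulation at 37 °C. The stimulus was either LPS (10 μg/ml in cocktail) or donkey anti-mouse F(ab′)2 (5 μg/ml) with recombinant mouse IL4 (2 ng/ml). Purified Balb/c splenic B cells, 50,000 per well, had compound for 30 min beforehand (0.2% DMSO final).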
(In general: Alamar Blue is a resazurin reagent that responds to reducing activity.)

Series [1] concerns phospho-AKT in RAJI cells (PI3Kδ). In words: PI3Kδ selective cellular assay: phospho-AKT in anti-human IgM stimulated RAJI cells. It is filed as cell-based. As to conditions: read-out: IC50 for phospho-AKT, RAJI cell model. An excerpt:
A compound's ability in selectively inhibiting PI3Kδ can be assessed using RAJI cells, i.e., B lymphocyte cells derived from lymphoma patients. Briefly, serum-starved RAJI cells are stimulated with anti-human IgM, thereby causing signaling through the B-cell receptors, as described in, for example, He et al., Leukemia Research (2009) 33: 798-802. B-cell receptor signaling is important for the activation, differentiation, and survival of B cells and certain B-cell derived cancers. Reduction of phospho-AKT is indicative of compounds that may inhibit B-cell proliferation and function in certain diseases. By monitoring the reduction of phospho-AKT in stimulated RAJI cells (using for example, phospho-AKT antibodies), a compound's potential efficacy in selectively inhibiting PI3Kδ can be assessed.
Certain compounds provided herein (e.g., Compounds I-21, I-86, I-87, I-91, I-106, and III-13) were tested in RAJI cell model using procedures as described above.

Series [2] concerns phospho-AKT in RAW 264.7 cells (PI3Kγ). Put plainly: PI3Kγ selective cellular assay: phospho-AKT in C5a stimulated RAW 264.7 cells. As to conditions: Mus musculus. It is filed as cell-based. An excerpt:
A compound's ability in selectively inhibiting PI3Kγ can be assessed using RAW264.7 macrophages. Briefly, serum-starved PAW264.7 cells are stimulated with a known GPCR agonist C5a. (See, e.g., Camps et al., Nature Medicine (2005) 11(9): 936-943). Cells can be treated with test compounds prior to, simultaneously with, or subsequent to the stimulation by C5a. RAW 264.7 cells respond to the complement component fragment C5a through activation of the C5a receptor, and the C5a receptor activates macrophages and induces cell migration. Test compounds' ability to inhibit C5a-mediated AKT phosphorylation is indicative of selective inhibition of PI3Kγ. Thus, by monitoring the reduction of phospho-AKT in stimulated RAW 264.7 cells (using for example, phospho-AKT antibodies), a compound's potential efficacy in selectively inhibiting PI3Kγ can be assessed.
Certain compounds provided herein (e.g., Compounds I-21, I-86, I-87, I-91, I-106, and III-13) were tested in RAW 264.7 cell model using procedures as described above.

For series [3], the system named is phospho-AKT in SKOV-3 cells (PI3Kα). In words: PI3Kα selective cellular assay: phospho-AKT in SKOV-3 cells. It is filed as cell-based. The settings on record: Homo sapiens. An excerpt: A compound's ability in selectively inhibiting PI3Kα can be assessed using SKOV-3 cells, i.e., human ovarian carcinoma cell line. Briefly, SKOV-3 cells, in which mutant PI3Kα is constitutively active, can be treated with test compounds. Test compounds' ability to inhibit AKT phosphorylation in SKOV-3 cells, therefore, is indicative of selective inhibition of PI3Kα. Thus, by monitoring the reduction of phospho-AKT in SKOV-3 cells (using for example, phospho-AKT antibodies), a compound's potential efficacy in selectively inhibiting PI3Kα can be assessed.
Certain compounds provided herein (e.g., Compounds I-21, I-86, I-87, I-91, and III-13) were tested in SKOV-3 cell model using procedures as described above.

Series [4] relates to phospho-AKT in 786-O cells (PI3Kβ). In words: PI3Kβ selective cellular assay: phospho-AKT in 786-O cells. Format: cell-based. As to conditions: Homo sapiens, 786-0, read-out: IC50 for phospho-AKT, 786-O cell model. An excerpt: A compound's ability in selectively inhibiting PI3Kβ can be assessed using 786-O cells, i.e., human kidney carcinoma cell line. Briefly, 786-O cells, in which PI3Kβ is constitutively active, can be treated with test compounds. Test compounds' ability to inhibit AKT phosphorylation in 786-O cells, therefore, is indicative of selective inhibition of PI3Kβ. Thus, by monitoring the reduction of phospho-AKT in 786-O cells (using for example, phospho-AKT antibodies), a compound's potential efficacy in selectively inhibiting PI3Kβ can be assessed.
Certain compounds provided herein (e.g., Compounds I-21, I-86, I-87, I-91, and III-13) were tested in 786-O cell model using procedures as described above.

The target of another series is T2, PI3Kδ (Homo sapiens, UniProt O00329).
T2 construct: purchased Millipore Corporation 14-604-K
In words: PI3 Kinase HTRF assay, PI3Kδ. It is filed as biochemical. The settings on record: 10 μM PIP2, 10 μM ATP; 'Greater than 10 μM' and 'Greater than 1 μM to 10 μM'; read-out: PI3K δ IC50. The text has this: (§1) A PI3-Kinase HTRF® assay kit (cat No. 33-016) purchased from Millipore Corporation was used to screen compounds provided herein. This assay used specific, high affinity binding of the GRP1 pleckstrin homology (PH) domain to PIP3, the product of a Class 1A or 1B PI3 Kinase acting on its physiological substrate PIP2. During the detection phase of the assay, a complex was generated between the GST-tagged PH domain and biotinylated short chain PIP3. The biotinylated PIP3 and the GST-tagged PH domain recruited fluorophores (Streptavidin-Allophycocyanin and Europium-labeled anti-GST respectively) to form the fluorescence resonance energy transfer (FRET) architecture, generating a stable time-resolved FRET signal. The FRET complex was disrupted in a competitive manner by non-biotinylated PIP3, a product formed in the PI3 Kinase assay.
(§2) PI3 Kinase α, β, γ and δ activity was assayed using the PI3 Kinase HTRF® assay kit (catalogue No. 33-016) purchased from Millipore Corporation. Purified recombinant PI3Kα (catalogue No. 14-602-K), PI3Kβ (catalogue No. 14-603-K), PI3Kγ (catalogue No. 14-558-K) and PI3Kδ (catalogue No. 14-604-K) were obtained from Millipore Corporation. Purified recombinant PI3K enzyme was used to catalyze the phosphorylation of phosphatidylinositol 4,5-bisphosphate (PIP2 at 10 μM) to phosphatidylinositol 3,4,5-trisphosphate (PIP3) in the presence of 10 μM ATP. The assay was carried out in 384-well format and detected using a Perkin Elmer EnVision Xcite Multilabel Reader. Emission ratios were converted into percent inhibitions and imported into GraphPad Prism software. The concentration necessary to achieve inhibition of enzyme activity by 50% (IC50) was calculated using concentrations ranging from 20 μM to 0.1 nM (12-point curve). IC50 values were determined using a nonlinear regression model available in GraphPad Prism 5. […]

The next series has as its target T3, PI3Kγ (Homo sapiens, UniProt P48736).
T3 construct: purchased Millipore Corporation 14-558-K
In words: PI3 Kinase HTRF assay, PI3Kγ. It is filed as biochemical. The settings on record: 10 μM PIP2, 10 μM ATP; 'Greater than 10 μM' and 'Greater than 1 μM to 10 μM'; read-out: PI3K γ IC50.
From the text: as §1, §2

Another series has as its system B6.Sle1z.Sle3z model. As to conditions: cited from earlier work.
The conditions of series [5]: PBS pH 7.4, 37° C., 24 hours; cited from earlier work.
The conditions of series [6]: control compounds, 5 μM; cited from earlier work.
Where [7] appears, read: RAW264.7, range with units in value, read-out: IC50 for phospho-AKT, RAW 264.7 cell model.
The mark [8] stands for this setting: SK-OV-3, read-out: IC50 for phospho-AKT, SKOV-3 cell model.
Where [9] appears, read: RAW264.7, read-out: IC50 for phospho-AKT, RAW 264.7 cell model.

T3 sequence (P48736 whole entry): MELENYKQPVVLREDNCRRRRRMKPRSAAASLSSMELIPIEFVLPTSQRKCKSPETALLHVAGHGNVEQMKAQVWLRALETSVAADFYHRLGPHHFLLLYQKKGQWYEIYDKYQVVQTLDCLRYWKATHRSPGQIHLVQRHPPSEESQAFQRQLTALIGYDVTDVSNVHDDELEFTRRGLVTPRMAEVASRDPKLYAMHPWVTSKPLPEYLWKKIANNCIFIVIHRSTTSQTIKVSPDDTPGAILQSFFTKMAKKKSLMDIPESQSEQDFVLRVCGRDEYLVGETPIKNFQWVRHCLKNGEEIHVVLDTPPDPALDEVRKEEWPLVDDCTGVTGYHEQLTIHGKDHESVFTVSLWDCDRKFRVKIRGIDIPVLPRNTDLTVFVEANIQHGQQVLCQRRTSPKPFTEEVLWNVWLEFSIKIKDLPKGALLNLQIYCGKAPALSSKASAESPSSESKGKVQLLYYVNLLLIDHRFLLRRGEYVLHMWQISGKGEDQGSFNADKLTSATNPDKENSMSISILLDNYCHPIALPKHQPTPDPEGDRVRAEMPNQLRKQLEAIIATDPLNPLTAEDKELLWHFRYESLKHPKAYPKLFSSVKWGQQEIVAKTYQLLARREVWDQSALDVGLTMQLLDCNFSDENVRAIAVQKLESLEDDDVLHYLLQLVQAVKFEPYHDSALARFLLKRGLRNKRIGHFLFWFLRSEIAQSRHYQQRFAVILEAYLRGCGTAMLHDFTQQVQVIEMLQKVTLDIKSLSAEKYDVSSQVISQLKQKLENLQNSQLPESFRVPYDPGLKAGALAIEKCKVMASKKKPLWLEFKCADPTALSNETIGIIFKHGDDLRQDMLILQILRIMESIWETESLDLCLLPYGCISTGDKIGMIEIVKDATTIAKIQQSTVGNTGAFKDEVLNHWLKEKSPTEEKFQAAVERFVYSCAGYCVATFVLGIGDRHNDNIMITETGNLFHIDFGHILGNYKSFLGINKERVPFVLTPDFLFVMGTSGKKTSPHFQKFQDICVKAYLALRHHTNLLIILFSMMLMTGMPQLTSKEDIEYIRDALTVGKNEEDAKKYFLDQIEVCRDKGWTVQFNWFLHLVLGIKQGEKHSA
T2 sequence (O00329 whole entry): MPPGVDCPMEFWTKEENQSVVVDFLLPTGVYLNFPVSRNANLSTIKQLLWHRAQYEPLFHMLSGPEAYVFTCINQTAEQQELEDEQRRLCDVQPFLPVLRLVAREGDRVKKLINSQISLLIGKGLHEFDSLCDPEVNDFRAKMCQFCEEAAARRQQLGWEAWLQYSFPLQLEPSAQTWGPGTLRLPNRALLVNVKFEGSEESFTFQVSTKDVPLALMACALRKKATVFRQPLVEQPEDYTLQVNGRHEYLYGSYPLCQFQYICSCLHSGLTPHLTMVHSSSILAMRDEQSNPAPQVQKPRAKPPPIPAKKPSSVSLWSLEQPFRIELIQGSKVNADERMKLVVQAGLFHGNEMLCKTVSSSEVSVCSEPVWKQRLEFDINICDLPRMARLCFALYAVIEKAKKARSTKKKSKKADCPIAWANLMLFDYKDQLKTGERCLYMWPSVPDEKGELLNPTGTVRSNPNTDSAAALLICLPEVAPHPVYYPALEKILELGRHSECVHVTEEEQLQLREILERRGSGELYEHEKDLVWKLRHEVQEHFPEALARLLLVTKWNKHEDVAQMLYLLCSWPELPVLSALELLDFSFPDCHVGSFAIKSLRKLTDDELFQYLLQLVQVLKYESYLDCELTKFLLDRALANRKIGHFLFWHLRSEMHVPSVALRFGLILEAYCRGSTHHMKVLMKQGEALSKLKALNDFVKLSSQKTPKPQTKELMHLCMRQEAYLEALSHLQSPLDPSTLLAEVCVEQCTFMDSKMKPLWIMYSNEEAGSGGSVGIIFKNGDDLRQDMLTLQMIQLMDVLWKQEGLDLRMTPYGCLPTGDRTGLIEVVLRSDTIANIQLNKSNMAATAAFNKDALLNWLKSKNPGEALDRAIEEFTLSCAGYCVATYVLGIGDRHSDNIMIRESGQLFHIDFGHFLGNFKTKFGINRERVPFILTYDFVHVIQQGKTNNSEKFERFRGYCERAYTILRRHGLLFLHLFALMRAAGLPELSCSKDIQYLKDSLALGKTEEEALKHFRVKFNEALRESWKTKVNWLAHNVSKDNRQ
T2 sequence (P27986 whole entry partner): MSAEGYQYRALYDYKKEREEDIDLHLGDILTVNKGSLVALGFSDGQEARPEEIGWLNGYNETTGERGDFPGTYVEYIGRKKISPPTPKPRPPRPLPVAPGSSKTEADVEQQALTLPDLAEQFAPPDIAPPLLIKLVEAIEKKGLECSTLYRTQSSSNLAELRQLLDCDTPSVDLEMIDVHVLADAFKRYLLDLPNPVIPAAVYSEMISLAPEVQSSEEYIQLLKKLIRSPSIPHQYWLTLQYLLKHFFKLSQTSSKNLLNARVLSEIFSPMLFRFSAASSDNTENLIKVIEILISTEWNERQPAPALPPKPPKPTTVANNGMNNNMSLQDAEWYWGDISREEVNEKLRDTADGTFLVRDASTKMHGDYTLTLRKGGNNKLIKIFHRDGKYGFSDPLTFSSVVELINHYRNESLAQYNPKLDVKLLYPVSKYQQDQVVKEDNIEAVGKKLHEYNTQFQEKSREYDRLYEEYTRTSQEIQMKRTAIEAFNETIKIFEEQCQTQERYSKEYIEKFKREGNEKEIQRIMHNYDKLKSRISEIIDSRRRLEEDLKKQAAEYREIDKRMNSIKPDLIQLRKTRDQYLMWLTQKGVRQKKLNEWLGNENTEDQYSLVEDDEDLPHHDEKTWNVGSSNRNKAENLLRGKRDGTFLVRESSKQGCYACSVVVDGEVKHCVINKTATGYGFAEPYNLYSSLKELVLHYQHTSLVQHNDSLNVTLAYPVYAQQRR
PI3Kβ, sequence (Q8BTI9 whole entry, the tested form may be a part): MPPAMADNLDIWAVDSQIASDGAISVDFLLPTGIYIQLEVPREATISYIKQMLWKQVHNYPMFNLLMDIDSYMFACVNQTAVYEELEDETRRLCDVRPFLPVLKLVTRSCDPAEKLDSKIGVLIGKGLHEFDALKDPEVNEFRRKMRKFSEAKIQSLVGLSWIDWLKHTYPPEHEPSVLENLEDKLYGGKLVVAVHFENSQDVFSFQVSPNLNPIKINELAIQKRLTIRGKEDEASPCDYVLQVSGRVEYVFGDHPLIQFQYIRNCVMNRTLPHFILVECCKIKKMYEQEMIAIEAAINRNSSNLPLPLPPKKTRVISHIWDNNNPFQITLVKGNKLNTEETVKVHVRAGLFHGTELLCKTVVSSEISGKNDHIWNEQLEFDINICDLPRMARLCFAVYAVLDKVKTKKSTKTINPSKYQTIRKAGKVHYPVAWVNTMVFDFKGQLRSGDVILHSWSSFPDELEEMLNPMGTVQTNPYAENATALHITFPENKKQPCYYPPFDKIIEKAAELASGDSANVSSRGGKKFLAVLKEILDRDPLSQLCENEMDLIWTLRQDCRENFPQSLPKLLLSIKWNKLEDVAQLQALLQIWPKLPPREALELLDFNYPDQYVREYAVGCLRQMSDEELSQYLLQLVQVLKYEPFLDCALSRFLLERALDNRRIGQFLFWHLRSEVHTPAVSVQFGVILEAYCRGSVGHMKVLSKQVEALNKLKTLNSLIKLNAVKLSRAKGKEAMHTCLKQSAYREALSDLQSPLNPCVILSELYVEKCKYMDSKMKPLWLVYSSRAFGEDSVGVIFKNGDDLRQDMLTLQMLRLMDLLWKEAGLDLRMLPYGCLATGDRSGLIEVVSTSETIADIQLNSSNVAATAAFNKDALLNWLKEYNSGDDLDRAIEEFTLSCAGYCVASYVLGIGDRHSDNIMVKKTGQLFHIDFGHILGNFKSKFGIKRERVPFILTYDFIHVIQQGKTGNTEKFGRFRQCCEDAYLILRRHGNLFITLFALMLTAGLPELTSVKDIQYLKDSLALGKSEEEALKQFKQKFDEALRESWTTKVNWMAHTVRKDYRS
T1 sequence (P42336 whole entry): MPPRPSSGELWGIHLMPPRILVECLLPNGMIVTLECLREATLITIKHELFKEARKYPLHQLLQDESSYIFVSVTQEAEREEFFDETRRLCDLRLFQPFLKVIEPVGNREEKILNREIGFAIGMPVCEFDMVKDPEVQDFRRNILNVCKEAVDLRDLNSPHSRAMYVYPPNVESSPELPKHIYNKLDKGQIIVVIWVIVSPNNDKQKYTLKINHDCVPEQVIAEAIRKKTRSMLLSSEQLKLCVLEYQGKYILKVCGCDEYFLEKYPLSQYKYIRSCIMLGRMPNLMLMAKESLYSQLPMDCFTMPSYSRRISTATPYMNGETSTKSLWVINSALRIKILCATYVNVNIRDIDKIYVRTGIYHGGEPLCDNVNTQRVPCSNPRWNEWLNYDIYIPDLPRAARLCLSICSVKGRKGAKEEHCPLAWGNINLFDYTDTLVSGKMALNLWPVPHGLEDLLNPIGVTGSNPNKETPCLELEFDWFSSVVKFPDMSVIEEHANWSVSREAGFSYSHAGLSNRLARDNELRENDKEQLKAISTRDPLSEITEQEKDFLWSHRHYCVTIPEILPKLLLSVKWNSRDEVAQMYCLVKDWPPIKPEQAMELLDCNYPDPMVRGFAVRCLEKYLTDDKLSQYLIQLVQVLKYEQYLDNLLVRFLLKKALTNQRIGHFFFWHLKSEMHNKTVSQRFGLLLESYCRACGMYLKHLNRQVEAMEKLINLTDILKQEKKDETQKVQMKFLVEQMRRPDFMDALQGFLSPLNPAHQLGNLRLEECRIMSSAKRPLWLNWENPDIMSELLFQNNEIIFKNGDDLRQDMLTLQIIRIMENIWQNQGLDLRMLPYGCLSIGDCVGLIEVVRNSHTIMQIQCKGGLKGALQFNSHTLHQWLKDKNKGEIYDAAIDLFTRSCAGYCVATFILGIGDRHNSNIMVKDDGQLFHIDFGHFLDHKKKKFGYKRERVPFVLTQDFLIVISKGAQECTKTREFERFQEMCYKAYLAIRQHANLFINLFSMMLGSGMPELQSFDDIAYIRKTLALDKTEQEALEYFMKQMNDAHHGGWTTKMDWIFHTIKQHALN
T1 sequence (P27986 whole entry partner): as the sequence (P27986 whole entry partner) above

For `C[C@H](Nc1ncnc2cccnc12)c1cc2cccc(-c3cnn(C)c3)c2c(=O)n1-c1ccccc1` [Compound I-21], the IC50 is 1 to 10 µM at PI3Kα; over 10 µM at PI3Kβ; under 100 nM in series [1]; 100 to 1000 nM in series [2] (setting [7]); 1000 to 10000 nM in series [3] (setting [8]); 1 to 10 µM in series [4]. The same compound yielded an EC50 with Balb/c splenic B cells ('Less than 100 nM') of under 100 nM.
As for `COc1ncc(-c2cccc3nc([C@H](C)Nc4nc(N)nc5cccnc45)n(-c4ccccc4)c(=O)c23)cn1` [Compound I-86], the IC50 on PI3Kα is 1 to 10 µM; on PI3Kβ, over 10 µM; in [1], under 100 nM; in series [2] (setting [9]) it was under 100 nM; in series [3] (setting [8]) it was 1000 to 10000 nM; in [4], 1 to 10 µM. The same compound displayed an EC50 in the series on Balb/c splenic B cells ('Less than 100 nM') of under 100 nM.
As to `C[C@H](Nc1nc(N)nc2cccnc12)c1nc2cccc(-c3cnn(C)c3)c2c(=O)n1-c1ccccc1` [Compound I-87], the IC50 at PI3Kα is 1 to 10 µM; on PI3Kβ, over 10 µM; in series [1] it was under 100 nM; in series [2] (setting [9]), under 100 nM; in [3] (SK-OV-3, range with units in value, read-out: IC50 for phospho-AKT, SKOV-3 cell model), 100 to 1000 nM; in [4], 1 to 10 µM. The compound also yielded an EC50 with Balb/c splenic B cells ('Less than 100 nM') of under 100 nM.
Turning to `Cc1ncc(-c2cccc3nc([C@H](C)Nc4nc(N)nc5cccnc45)n(-c4ccccc4)c(=O)c23)cn1` [Compound I-91, (S)-2-(1-((2-aminopyrido[3,2-d]pyrimidin-4-yl)amino)ethyl)-5-(2-methylpyrimidin-5-yl)-3-phenylquinazolin-4(3H)-one], the IC50 was 1 to 10 µM at PI3Kα; over 10 µM on PI3Kβ; under 100 nM in [1]; under 100 nM in series [2] (setting [9]); 1000 to 10000 nM in [3] (setting [8]); 1 to 10 µM in series [4]. The compound also came in with an EC50 in the series with Balb/c splenic B cells ('Less than 100 nM') of under 100 nM.
Turning to `C[C@H](Nc1cc(O)nc2cccnc12)c1cc2cccc(Cl)c2c(=O)n1-c1ccccc1` [Compound I-100], the IC50 on PI3Kδ is 1 to 10 µM; at PI3Kγ, 1 to 10 µM; at PI3Kβ, over 10 µM. This compound returned an EC50 with Balb/c splenic B cells (column 'Greater than 1 μM to 10 μM') of 1000 to 10000 nM.
For `CC(C)n1c([C@H](C)Nc2ncnc3cccnc23)cc2cccc(-c3ccc(=O)n(C)c3)c2c1=O` [Compound I-106], the IC50 is 1 to 10 µM on PI3Kγ; 1 to 10 µM at PI3Kα; 1 to 10 µM at PI3Kβ; under 100 nM in [1]; 100 to 1000 nM in series [2] (setting [7]).
Turning to `C[C@H](Nc1ncnc2[nH]cnc12)c1cc2cccc(C(F)(F)F)c2c(=O)n1-c1cccc(F)c1` [III-13], the IC50 was 1 to 10 µM on PI3Kα; 1 to 10 µM on PI3Kβ; under 100 nM in series [1]; 100 to 1000 nM in series [2] (setting [7]); 1000 to 10000 nM in [3] (setting [8]); 1 to 10 µM in series [4]. This compound showed an EC50 in the series on Balb/c splenic B cells ('Less than 100 nM') of under 100 nM.
On to `C[C@@H](Nc1ncnc2cc(F)ccc12)c1cc2cccc(Cl)c2c(=O)n1-c1ccccc1` [IV-1], for which the IC50 on PI3Kδ, on PI3Kγ, on PI3Kα and at PI3Kβ was over 10 µM each time.
In the case of `C[C@@H](Nc1ncnc2cc(F)c(F)cc12)c1cc2cccc(Cl)c2c(=O)n1-c1ccccc1` [IV-3], the IC50 on PI3Kδ, on PI3Kγ, on PI3Kα and at PI3Kβ was over 10 µM throughout.
`CO[C@H]1C[C@@H]2CC[C@@H](C)[C@@](O)(O2)C(=O)C(=O)N2CCCC[C@H]2C(=O)O[C@H]([C@H](C)C[C@@H]2CC[C@@H](OCCO)[C@H](OC)C2)CC(=O)[C@H](C)/C=C(\C)[C@@H](O)[C@@H](OC)C(=O)[C@H](C)C[C@H](C)/C=C/C=C/C=C/1C` [RAD001, everolimus]: the lupus symptoms result in the series on B6.Sle1z.Sle3z model is reported as “ameliorate lupus symptoms”.
For `O=C(O)CCCc1ccc(N(CCCl)CCCl)cc1` [chlorambucil], the chemical stability result in [5] was “largely hydrolyzed over the course of 24 hours”.
In the case of `CC(C)[N+](C)(CCOC(=O)C1c2ccccc2Oc2ccccc21)C(C)C` [propantheline], the plasma stability result in series [6] is reported as “intermediate plasma stability”.
Regarding `CCCOc1cc(N)ccc1C(=O)OCCN(CC)CC` [propoxycaine], in [6], the plasma stability entry was “low plasma stability”.
